Laboratory results as given in ChEMBL document CHEMBL1201862, “PubChem BioAssay data set” (2004).
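These data come from cells grown in 96-well plates and exposed to compound for 48 hours at five concentrations. At the GI50, growth is halved.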 The source made the active and inactive calls. Rule as the data show it: active = GI50 up to about 1.1 µM and inactive = higher.

Tests used:
Assay in all cases: inhibition of tumour cell growth, NCI panel, 48 h
A498 = system: A498
COLO 205 = system: COLO 205
HL-60 = system: HL-60
HOP-92 = system: HOP-92
KM12 = system: KM12
M14 = system: M14
NCI-H23 = system: NCI-H23
NCI-H522 = system: NCI-H522
OVCAR-3 = system: OVCAR-3
OVCAR-4 = system: OVCAR-4
PC-3 = system: PC-3
SF-268 = system: SF-268
SK-MEL-28 = system: SK-MEL-28
SK-MEL-2 = system: SK-MEL-2
SK-OV-3 = system: SK-OV-3
SW-620 = system: SW-620
U-251 = system: U-251
UACC-257 = system: UACC-257
MDA-N = system: MDA-N
SR = system: SR

Measured: GI50

CC(C)(C)n1nc(C2CC2)cc1NC(=O)Nc1ccc(Cl)cc1
inactive: A498 > 100 µM | COLO 205 > 100 µM | HL-60 > 100 µM | HOP-92 > 100 µM | KM12 > 100 µM | M14 > 100 µM | NCI-H23 > 100 µM | NCI-H522 > 100 µM | OVCAR-3 > 100 µM | OVCAR-4 > 100 µM | PC-3 > 100 µM | SF-268 > 100 µM | SK-MEL-28 > 100 µM | SK-MEL-2 > 100 µM | SK-OV-3 > 100 µM | SW-620 > 100 µM | U-251 > 100 µM | UACC-257 > 100 µM

O=c1n(Cc2ccccc2)c(=O)n2c(=O)n(Cc3ccccc3)c(=O)n12
inactive: A498 > 100 µM | COLO 205 38.3 µM | HL-60 > 100 µM | HOP-92 > 100 µM | KM12 > 100 µM | MDA-N > 100 µM | NCI-H23 > 100 µM | NCI-H522 > 100 µM | OVCAR-4 > 100 µM | SF-268 > 100 µM | SK-MEL-28 > 100 µM | SK-OV-3 > 100 µM | SR > 100 µM | SW-620 > 100 µM | U-251 > 100 µM | UACC-257 > 100 µM

CCC/C(C)=N/NC(=S)SC.CCC/C(C)=N/NC(=S)SC.[Zn+2]
inactive: A498 22.2 µM | COLO 205 14.2 µM | KM12 11.5 µM | M14 11.1 µM | NCI-H23 13.7 µM | NCI-H522 11.3 µM | OVCAR-3 10.2 µM | OVCAR-4 14.1 µM | PC-3 12.4 µM | SF-268 14.1 µM | SK-MEL-28 16 µM | SK-MEL-2 13.9 µM | SK-OV-3 16.2 µM | SW-620 9.44 µM | U-251 1.84 µM | UACC-257 7.46 µM

Clc1ccc(CCN2CCOCC2)c(Cl)c1
inactive: A498 > 100 µM | COLO 205 > 100 µM | HL-60 > 100 µM | HOP-92 > 100 µM | KM12 > 100 µM | M14 > 100 µM | NCI-H23 > 100 µM | NCI-H522 > 100 µM | OVCAR-4 > 100 µM | SF-268 > 100 µM | SK-MEL-28 > 100 µM | SK-MEL-2 > 100 µM | SK-OV-3 > 100 µM | SR > 100 µM | U-251 > 100 µM | UACC-257 > 100 µM

Cc1[nH]c2ncn3[nH]c(=S)nc3c2c1Cc1ccccc1
inactive: A498 > 100 µM | COLO 205 > 100 µM | HL-60 > 100 µM | HOP-92 > 100 µM | KM12 > 100 µM | M14 > 100 µM | NCI-H23 > 100 µM | NCI-H522 72.4 µM | OVCAR-3 > 100 µM | OVCAR-4 > 100 µM | PC-3 > 100 µM | SF-268 > 100 µM | SK-MEL-28 > 100 µM | SK-MEL-2 > 100 µM | SK-OV-3 > 100 µM | SW-620 > 100 µM | U-251 > 100 µM | UACC-257 > 100 µM

CCOC(=O)COS(=O)(=O)C(F)(F)F
inactive: A498 > 100 µM | COLO 205 38 µM | HL-60 > 100 µM | HOP-92 > 100 µM | KM12 > 100 µM | M14 > 100 µM | NCI-H23 > 100 µM | NCI-H522 > 100 µM | OVCAR-3 > 100 µM | OVCAR-4 > 100 µM | SF-268 60.4 µM | SK-MEL-28 > 100 µM | SK-MEL-2 > 100 µM | SK-OV-3 > 100 µM | SR 24.7 µM | U-251 > 100 µM | UACC-257 > 100 µM

O=C1OCCC1(Cc1ccc(Cl)cc1)Cc1ccc(Cl)cc1
inactive: A498 46 µM | COLO 205 > 100 µM | HL-60 > 100 µM | HOP-92 30.3 µM | KM12 > 100 µM | M14 > 100 µM | NCI-H23 53.2 µM | NCI-H522 > 100 µM | OVCAR-3 > 100 µM | OVCAR-4 36.2 µM | SF-268 > 100 µM | SK-MEL-28 > 100 µM | SK-MEL-2 71.8 µM | SK-OV-3 > 100 µM | SR > 100 µM | SW-620 > 100 µM | U-251 52.1 µM | UACC-257 > 100 µM

CC(=O)O[C@H]1CC[C@@]2(C)C(=C[C@H](c3ccc(O)cc3)[C@H]3[C@@H]4CC[C@H](OC(C)=O)[C@@]4(C)CC[C@@H]32)C1
inactive: COLO 205 19.2 µM | HL-60 19.6 µM | HOP-92 34.4 µM | KM12 16.6 µM | M14 19 µM | NCI-H23 19.8 µM | OVCAR-3 17.3 µM | OVCAR-4 15.4 µM | PC-3 14.3 µM | SF-268 19 µM | SK-MEL-2 20.2 µM | SK-OV-3 > 100 µM | SW-620 22 µM | U-251 22.1 µM | UACC-257 22 µM
active: A498 0.51 µM

CN(C)CCCNC(=O)c1cccc2nc3ccccc3nc12
inactive: A498 16 µM | COLO 205 6.95 µM | HOP-92 50.4 µM | KM12 13.5 µM | M14 22 µM | NCI-H23 14.8 µM | NCI-H522 26.6 µM | OVCAR-3 19.4 µM | OVCAR-4 14.1 µM | SK-MEL-28 19.2 µM | SK-MEL-2 14.8 µM | SK-OV-3 > 52.1 µM | SR 4.57 µM | SW-620 8.13 µM | U-251 19.1 µM | UACC-257 13.2 µM
active: SF-268 0.32 µM

CC(=O)OC1C(COC(N)=O)OC(n2c(-c3ccc(C)cc3)cc(-c3ccccc3)c(C#N)c2=O)C(OC(C)=O)C1OC(C)=O (centres undefined)
inactive: A498 > 100 µM | COLO 205 > 100 µM | HOP-92 9.86 µM | KM12 > 100 µM | M14 > 100 µM | NCI-H23 > 100 µM | NCI-H522 > 100 µM | OVCAR-3 > 100 µM | OVCAR-4 > 100 µM | SF-268 > 100 µM | SK-MEL-28 > 100 µM | SK-MEL-2 > 100 µM | SK-OV-3 > 100 µM | SR > 100 µM | SW-620 > 100 µM | U-251 > 100 µM | UACC-257 > 100 µM

CC(=O)OC1C2CCC1C1C2C2(Cl)C(Cl)=C(Cl)C1(Cl)C2(Cl)Cl (centres undefined)
inactive: A498 13.9 µM | COLO 205 15 µM | HOP-92 11.2 µM | KM12 13 µM | M14 12.4 µM | NCI-H23 12.2 µM | NCI-H522 12.3 µM | OVCAR-3 11.4 µM | OVCAR-4 19.7 µM | SF-268 17.7 µM | SK-MEL-28 18.2 µM | SK-MEL-2 10.2 µM | SK-OV-3 16 µM | SR 9.95 µM | SW-620 14.5 µM | U-251 13.3 µM | UACC-257 13.2 µM

CCN(CC)CCN(C)c1ccc(CO)c2c1c(=O)c1ccccc1[s+]2[O-] (centres undefined)
inactive: A498 10.7 µM | COLO 205 7.06 µM | HL-60 16.8 µM | HOP-92 8.89 µM | KM12 1.98 µM | M14 2.11 µM | NCI-H23 4.08 µM | NCI-H522 2.02 µM | OVCAR-3 1.95 µM | OVCAR-4 5.6 µM | PC-3 13.7 µM | SF-268 16.5 µM | SK-MEL-28 5.05 µM | SK-MEL-2 19.9 µM | SK-OV-3 16.1 µM | SR 2.28 µM | SW-620 1.88 µM | U-251 1.69 µM | UACC-257 2 µM

COCOCCC#CCO
inactive: A498 > 100 µM | HL-60 > 100 µM | HOP-92 > 100 µM | KM12 > 100 µM | M14 > 100 µM | NCI-H23 32.4 µM | NCI-H522 68.4 µM | OVCAR-3 > 100 µM | SF-268 > 100 µM | SK-MEL-28 > 100 µM | SK-MEL-2 > 100 µM | SK-OV-3 > 100 µM | SR 83.8 µM | SW-620 > 100 µM | U-251 > 100 µM | UACC-257 > 100 µM

CC1=NN(C(=O)Nc2ccc(Cl)cc2)C(=O)C2CCC(=O)N12 (centres undefined)
inactive: A498 > 100 µM | COLO 205 > 100 µM | HL-60 61.7 µM | HOP-92 > 100 µM | KM12 28.9 µM | M14 > 100 µM | NCI-H23 74.1 µM | OVCAR-3 > 100 µM | OVCAR-4 72.8 µM | SF-268 45.3 µM | SK-MEL-28 > 100 µM | SK-MEL-2 > 100 µM | SK-OV-3 38.7 µM | SR > 100 µM | SW-620 > 100 µM | U-251 > 100 µM | UACC-257 49.3 µM

C=CCCCCCCCCCP(=O)(c1ccccc1)c1ccc2c(c1)OCCOCCOCCOCCO2 (centres undefined)
inactive: A498 14.2 µM | COLO 205 15.9 µM | HL-60 5.18 µM | HOP-92 > 100 µM | KM12 12.8 µM | M14 > 100 µM | NCI-H23 14.9 µM | NCI-H522 12.1 µM | OVCAR-3 7.08 µM | OVCAR-4 11.5 µM | SF-268 15.3 µM | SK-MEL-28 16.3 µM | SK-MEL-2 18 µM | SK-OV-3 20.2 µM | SR 7.16 µM | SW-620 16 µM | U-251 15.9 µM | UACC-257 16.7 µM

O=C1C2C3C=CC(C2C(=O)N1CN1CCSCC1)C1C2C(=O)N(CN4CCSCC4)C(=O)C2C31 (centres undefined)
inactive: A498 > 100 µM | COLO 205 56.5 µM | HL-60 29.9 µM | HOP-92 > 75.5 µM | KM12 > 100 µM | M14 > 100 µM | NCI-H23 > 100 µM | NCI-H522 > 100 µM | OVCAR-3 > 100 µM | OVCAR-4 > 100 µM | SF-268 > 50.4 µM | SK-MEL-28 > 100 µM | SK-MEL-2 > 100 µM | SK-OV-3 > 100 µM | SR 39.7 µM | SW-620 31.7 µM | U-251 > 72.1 µM | UACC-257 > 100 µM
